Test results taken from patent US9708336B2, “Metallo-beta-lactamase inhibitors” (priority 2014, dated 2017).
Read-outs that look alike come from different tables or passages of the source.

Key:
[1] = test system: Serratia marcescens expressing IMP-1 (CL5741); test: Antibiotic potentiation activity: synergistic concentration (MITC95) with imipenem, OD600 growth; format: cell-based; settings: for Serratia marcescens expressing IMP-1 (CL5741) MITC95: concentration giving 95% inhibition of bacterial growth
In short: (§1)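 Growth after 22–24 h at 35 °C is measured spectrophotometrically for bacteria incubated with compound plus imipenem (4 μg/ml in-well, or 1 μg/ml). Cells come from overnight agar colonies resuspended in saline and diluted 1:100 in 1.1× CAMHB.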

[2] = test system: Escherichia coli expressing NDM-1 (CLB30005); test: as above; format: cell-based
In short: as §1

[3] = test system: Klebsiella pneumoniae expressing VIM-1 (IHMA599644); test: as above; format: cell-based; settings: for Klebsiella pneumoniae expressing VIM-1 (IHMA 599644) MITC95: concentration giving 95% inhibition of bacterial growth
In short: as §1

NDM-1 = NDM-1 (Klebsiella pneumoniae, UniProt C7C422); test: biochemical; format: biochemical; settings: read-out: NDM-1 IC50
Chain of NDM-1 (C7C422 whole entry, looked up, species assumed): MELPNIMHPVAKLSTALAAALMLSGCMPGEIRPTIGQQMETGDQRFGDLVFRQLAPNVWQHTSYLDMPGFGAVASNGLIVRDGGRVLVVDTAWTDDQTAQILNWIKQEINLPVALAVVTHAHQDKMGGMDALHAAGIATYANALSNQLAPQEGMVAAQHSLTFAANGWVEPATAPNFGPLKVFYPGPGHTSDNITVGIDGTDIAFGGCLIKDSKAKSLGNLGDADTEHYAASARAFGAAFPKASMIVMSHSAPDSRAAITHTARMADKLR

[4] = test system: Escherichia coli expressing NDM-1 (CLB30016); test: Antibiotic potentiation activity: synergistic concentration (MITC95) with imipenem, OD600 growth; format: cell-based; settings: for Escherichia coli expressing NDM-1 (CLB 30016) MITC95: concentration giving 95% inhibition of bacterial growth
In short: as §1

IMP-1 = IMP-1 (Serratia marcescens, UniProt P52699); test: biochemical; format: biochemical
Chain of IMP-1 (P52699 whole entry, looked up): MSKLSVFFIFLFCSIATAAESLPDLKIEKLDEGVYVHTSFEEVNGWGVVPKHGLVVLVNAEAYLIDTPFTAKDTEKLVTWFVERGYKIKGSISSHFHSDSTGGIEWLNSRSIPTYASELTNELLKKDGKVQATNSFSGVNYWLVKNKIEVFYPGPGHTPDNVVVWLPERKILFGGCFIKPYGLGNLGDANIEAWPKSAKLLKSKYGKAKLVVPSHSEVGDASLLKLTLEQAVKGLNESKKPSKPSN

VIM-1 = VIM-1 (Pseudomonas aeruginosa (strain ATCC 15692 / DSM 22644 / CIP 104116 / JCM 14847 / LMG 12228 / 1C / PRS 101 / PAO1), UniProt A0A0F7KYQ8); test: Enzyme activity: determination of IC50, fluorescence assay with CCF2-FA substrate (VIM-1); format: biochemical
[5] = Serratia marcescens expressing IMP-1 (CL5741), 95% growth inhibition
[6] = Klebsiella pneumoniae expressing VIM-1 (IHMA599644), 95% growth inhibition
[7] = NDM-1 enzyme, CCF2-FA fluorescence assay
[8] = Escherichia coli expressing NDM-1 (CLB30016), 95% growth inhibition
[9] = IMP-1 enzyme, CCF2-FA fluorescence assay, read-out: IMP-1 IC50
[10] = VIM-1 enzyme, CCF2-FA fluorescence assay, read-out: VIM-1 IC50
[11] = CL5741 (IMP-1), 95% inhibition of bacterial growth
[12] = CLB30016 (NDM-1), 95% inhibition of bacterial growth
[13] = IHMA599644 (VIM-1), 95% inhibition of bacterial growth
[14] = fluorescence assay with CCF2-FA substrate, read-out: IMP-1 IC50
[15] = fluorescence assay with CCF2-FA substrate, read-out: VIM-1 IC50
[16] = fluorescence assay with CCF2-FA substrate
[17] = Serratia marcescens CL5741 (IMP-1), 95% growth inhibition
[18] = (CLB30016, NDM-1), 95% growth inhibition
[19] = Klebsiella pneumoniae IHMA599644 (VIM-1), 95% growth inhibition
[20] = IMP-1 enzyme, CCF2-FA substrate, read-out: IMP-1 IC50
[21] = VIM-1 enzyme, CCF2-FA substrate, read-out: VIM-1 IC50
[22] = NDM-1 enzyme, CCF2-FA substrate

## COC(=O)c1ccc(-c2nn[nH]n2)c(S(N)(=O)=O)c1 [Example 255, Methyl 3-sulfamoyl-4-(2H-tetrazol-5-yl)benzoate]
[1]; [5]
  Serratia marcescens MITC95: >200 µM
[2]; Escherichia coli expressing NDM-1 (CLB30005), 95% growth inhibition
  Escherichia coli MITC95: 25 µM
[3]; [6]
  Klebsiella pneumoniae MITC95: >200 µM
NDM-1; [7]
  IC50: 699 nM

## NS(=O)(=O)c1cccc(-c2ccnc(CO)c2)c1-c1nn[nH]n1 [Example 92, 3-[2-(hydroxymethyl)pyridin-4-yl]-2-(2H-tetrazol-5-yl)benzenesulfonamide]
[1]
  Serratia marcescens expressing IMP-1 (CL5741) MITC95: 50 µM
[2]; concentration giving 95% inhibition of bacterial growth
  Escherichia coli expressing NDM-1 (CLB 30005) MITC95: 0.3906 µM

## NS(=O)(=O)c1cccc(-c2ccc(OC3CCNCC3)cc2)c1-c1nnn[nH]1 [Example 316, 4′-(piperidin-4-yloxy)-2-(1H-tetrazol-5-yl)-[1,1′-biphenyl]-3-sulfonamide]
[1]; [5]
  Serratia marcescens MITC95: 2.344 µM
[4]; [8]
  Escherichia coli MITC95: 0.9766 µM
[3]; [6]
  Klebsiella pneumoniae MITC95: 12.5 µM
IMP-1; [9]
  IC50: 69.3 nM
VIM-1; [10]
  IC50: 67.7 nM
NDM-1; [7]
  IC50: 5.11 nM

## NCCC1CCN(c2ccc(C(F)(F)F)c(S(N)(=O)=O)c2-c2nnn[nH]2)CC1 [Example 755, 3-[4-(2-aminoethyl)piperidin-1-yl]-2-(1H-tetrazol-5-yl)-6-(trifluoromethyl) benzenesulfonamide]
[1]; [11]
  Serratia marcescens MITC95: 6.25 µM
[4]; [12]
  Escherichia coli MITC95: 6.25 µM
[3]; [13]
  Klebsiella pneumoniae MITC95: 3.125 µM
IMP-1; [14]
  IC50: 22.1 nM
VIM-1; [15]
  IC50: 0.191 nM
NDM-1; [16]
  IC50: 13.9 nM

## CNCc1ccc(-c2cccc(S(N)(=O)=O)c2-c2nnn[nH]2)cc1 [Example 334, 4′-((methylamino)methyl)-2-(1H-tetrazol-5-yl)-[1,1′-biphenyl]-3-sulfonamide]
[1]; [5]
  Serratia marcescens MITC95: 3.125 µM
[4]; [8]
  Escherichia coli MITC95: 0.3906 µM
[3]; [6]
  Klebsiella pneumoniae MITC95: 9.375 µM
IMP-1; [9]
  IC50: 385 nM
VIM-1; [10]
  IC50: 129 nM
NDM-1; [7]
  IC50: 10.6 nM

## NS(=O)(=O)c1cccc(-c2ccc(CN3CNC(=O)C3)cc2)c1-c1nnn[nH]1 [Example 342, 4′-[(4-oxoimidazolidin-1-yl)methyl]-2-(1H-tetrazol-5-yl)biphenyl-3-sulfonamide]
[1]; [5]
  Serratia marcescens MITC95: 0.7813 µM
[4]; [8]
  Escherichia coli MITC95: 3.125 µM
[3]; [6]
  Klebsiella pneumoniae MITC95: 25 µM
IMP-1; [9]
  IC50: 46 nM
VIM-1; [10]
  IC50: 80.4 nM
NDM-1; [7]
  IC50: 4.64 nM

## NS(=O)(=O)c1c(CC2CCNCC2)ccc(-c2ccc(C3CCNCC3)cc2)c1-c1nn[nH]n1 [Example 456, 4′-(piperidin-4-yl)-4-(piperidin-4-ylmethyl)-2-(2H-tetrazol-5-yl)-[1,1′-biphenyl]-3-sulfonamide]
[1]; [5]
  Serratia marcescens MITC95: 0.5859 µM
[4]; [8]
  Escherichia coli MITC95: 0.5859 µM
[3]; [6]
  Klebsiella pneumoniae MITC95: 1.172 µM
IMP-1; [9]
  IC50: 9.79 nM
VIM-1; [10]
  IC50: 3.44 nM
NDM-1; [7]
  IC50: 4.58 nM

## CCC(CO)NCc1ccc(-c2cccc(S(N)(=O)=O)c2-c2nnn[nH]2)cc1 (stereo in doubt) [Example 345, 4′-({[(1S)-1-(hydroxymethyl)propyl]amino}methyl)-2-(1H-tetrazol-5-yl)biphenyl-3-sulfonamide]
[1]; [5]
  Serratia marcescens MITC95: 4.688 µM
[4]; [8]
  Escherichia coli MITC95: 1.563 µM
[3]; [6]
  Klebsiella pneumoniae MITC95: 50 µM
IMP-1; [9]
  IC50: 213 nM
VIM-1; [10]
  IC50: 269 nM
NDM-1; [7]
  IC50: 18.5 nM

## NS(=O)(=O)c1c(C(F)(F)F)ccc(N2CCC3(CCNCC3)CC2)c1-c1nnn[nH]1 [Example 783, 3-(3,9-diazaspiro[5.5]undecan-3-yl)-2-(1H-tetrazol-5-yl)-6-(trifluoromethyl) benzenesulfonamide]
[1]; [11]
  Serratia marcescens MITC95: 0.5859 µM
[4]; [12]
  Escherichia coli MITC95: 1.172 µM
[3]; [13]
  Klebsiella pneumoniae MITC95: 2.344 µM
IMP-1; [14]
  IC50: 13.4 nM
VIM-1; [15]
  IC50: 1.93 nM
NDM-1; [16]
  IC50: 4.91 nM

## NCCNc1nc2c(-c3cccc(S(N)(=O)=O)c3-c3nn[nH]n3)cccc2s1 [Example 639, 3-[2-(2-aminoethylamino)-1,3-benzothiazol-4-yl]-2-(2H-tetrazol-5-yl)benzenesulfonamide]
[1]; [17]
  Serratia marcescens MITC95: 25 µM
[4]; [18]
  Escherichia coli MITC95: 1.563 µM
[3]; [19]
  Klebsiella pneumoniae MITC95: 6.25 µM
IMP-1; [20]
  IC50: 187 nM
VIM-1; [21]
  IC50: 10.5 nM
NDM-1; [22]
  IC50: 1.98 nM

## NC[C@H]1CC[C@H](c2ccc(C(F)(F)F)c(S(N)(=O)=O)c2-c2nnn[nH]2)CC1 [Example 501, 3-(trans 4-(aminomethyl)cyclohexyl)-2-(1H-tetrazol-5-yl)-6-(trifluoromethyl)benzenesulfonamide]
[1]; [17]
  Serratia marcescens MITC95: 1.563 µM
[4]; [18]
  Escherichia coli MITC95: 1.172 µM
[3]; [19]
  Klebsiella pneumoniae MITC95: 1.563 µM
IMP-1
  IC50: 5.39 nM
VIM-1; [21]
  IC50: 0.516 nM
NDM-1; [22]
  IC50: 1.52 nM

## Cc1ccc(-c2ccc(C(F)(F)F)c(S(N)(=O)=O)c2-c2nn[nH]n2)cc1 [Example 268, 4′-methyl-2-(2H-tetrazol-5-yl)-4-(trifluoromethyl)-[1,1′-biphenyl]-3-sulfonamide]
[1]; [5]
  Serratia marcescens MITC95: 0.25 µM
[4]; [8]
  Escherichia coli MITC95: 2.229 µM
[3]; [6]
  Klebsiella pneumoniae MITC95: 9.375 µM
IMP-1; [9]
  IC50: 1.64 nM
VIM-1; [10]
  IC50: 0.898 nM
NDM-1; [7]
  IC50: 2.01 nM

## NS(=O)(=O)c1cccc(-c2cnc(N3CCCCC3)nc2)c1-c1nnn[nH]1 [Example 122, 3-(2-(piperidin-1-yl)pyrimidin-5-yl)-2-(1H-tetrazol-5-yl)benzenesulfonamide]
[1]
  Serratia marcescens expressing IMP-1 (CL5741) MITC95: 4.688 µM
[4]
  Escherichia coli expressing NDM-1 (CLB 30016) MITC95: 4.688 µM
[3]
  Klebsiella pneumoniae expressing VIM-1 (IHMA 599644) MITC95: >200 µM
IMP-1; [14]
  IC50: 63.1 nM
VIM-1; [15]
  IC50: 249 nM
NDM-1; [16]
  IC50: 3.08 nM

## NS(=O)(=O)c1c(C(F)(F)F)ccc(-c2ccc(C3CN(C4CCNCC4)C3)cc2)c1-c1nnn[nH]1 [Example 802, 4′-(1-piperidin-4-ylazetidin-3-yl)-2-(1H-tetrazol-5-yl)-4-(trifluoromethyl)biphenyl-3-sulfonamide]
[1]; [11]
  Serratia marcescens MITC95: 6.25 µM
[4]; [12]
  Escherichia coli MITC95: 6.25 µM
[3]; [13]
  Klebsiella pneumoniae MITC95: 100 µM
IMP-1; [14]
  IC50: 4.27 nM
VIM-1; [15]
  IC50: 17.2 nM
NDM-1; [16]
  IC50: 3.25 nM

## NS(=O)(=O)c1c(C(F)(F)F)ccc(-c2cnc3ccccn23)c1-c1nnn[nH]1 [Example 748, 3-imidazo[1,2-a]pyridin-3-yl-2-(1H-tetrazol-5-yl)-6-(trifluoromethyl)benzenesulfon-amide]
[1]; [11]
  Serratia marcescens MITC95: 6.25 µM
[4]; [12]
  Escherichia coli MITC95: 0.7813 µM
[3]; [13]
  Klebsiella pneumoniae MITC95: 6.25 µM
IMP-1; [14]
  IC50: 1.25 nM
VIM-1; VIM-1 IC50, fluorescence assay with CCF2-FA substrate
  IC50: 0.248 nM
NDM-1; [16]
  IC50: 0.833 nM

## Cc1cccc(S(N)(=O)=O)c1-c1nnn[nH]1 [Example 150, 3-methyl-2-(1H-tetrazol-5-yl)benzenesulfonamide]
[1]
  Serratia marcescens expressing IMP-1 (CL5741) MITC95: 6.25 µM
[4]
  Escherichia coli expressing NDM-1 (CLB 30016) MITC95: 0.7813 µM
[3]
  Klebsiella pneumoniae expressing VIM-1 (IHMA 599644) MITC95: 200 µM
IMP-1; [14]
  IC50: 1940 nM
VIM-1; [15]
  IC50: 5650 nM
NDM-1; [16]
  IC50: 148 nM

## N#CCCc1ccc(-c2ccnc3ccccc23)c(-c2nn[nH]n2)c1S(N)(=O)=O [Example 453, 6-(2-cyanoethyl)-3-(quinolin-4-yl)-2-(2H-tetrazol-5-yl)benzenesulfonamide]
[1]; [5]
  Serratia marcescens MITC95: 12.5 µM
[4]; [8]
  Escherichia coli MITC95: 4.688 µM
[3]; [6]
  Klebsiella pneumoniae MITC95: 6.25 µM
IMP-1; [9]
  IC50: 111 nM
VIM-1; [10]
  IC50: 0.665 nM
NDM-1; [7]
  IC50: 6.88 nM

## Cc1ccc(C(F)(F)F)c(S(N)(=O)=O)c1-c1nnn[nH]1 [Example 487, 3-methyl-2-(1H-tetrazol-5-yl)-6-(trifluoromethyl)benzenesulfonamide]
[1]; [5]
  Serratia marcescens MITC95: 1.563 µM
[4]; [8]
  Escherichia coli MITC95: 1.563 µM
[3]; [6]
  Klebsiella pneumoniae MITC95: 25 µM
IMP-1; [9]
  IC50: 56.4 nM
VIM-1; [10]
  IC50: 70.4 nM
NDM-1; [7]
  IC50: 102 nM

## Nc1nc2ccc(-c3cccc(S(N)(=O)=O)c3-c3nn[nH]n3)cc2[nH]1 [Example 429]
[1]; [5]
  Serratia marcescens MITC95: 6.25 µM
[4]; [8]
  Escherichia coli MITC95: 0.0625 µM
[3]; [6]
  Klebsiella pneumoniae MITC95: 2.344 µM
IMP-1; [9]
  IC50: 499 nM
VIM-1; [10]
  IC50: 30 nM
NDM-1; [7]
  IC50: 2.58 nM

## NCCN[C@H]1CC[C@H](c2ccc(C(F)(F)F)c(S(N)(=O)=O)c2-c2nnn[nH]2)CC1 [Example 700, 3-{4-[(2-aminoethyl)amino]cyclo-hexyl}-2-(1H-tetrazol-5-yl)-6-(trifluoromethyl)benzene sulfonamide]
[1]; [17]
  Serratia marcescens MITC95: 3.125 µM
[4]; [18]
  Escherichia coli MITC95: 0.3906 µM
[3]; [19]
  Klebsiella pneumoniae MITC95: 1.563 µM
IMP-1; [20]
  IC50: 16.7 nM
VIM-1; VIM-1 IC50, VIM-1 enzyme, CCF2-FA substrate
  IC50: 0.958 nM
NDM-1; [22]
  IC50: 3.94 nM
